Data set [1] can be described thus: Peptide stability in cell culture medium / conditioned medium (ELISA of functional peptide). The class given is in vitro ADME. The procedure:
PC3 prostate cancer cells were grown in RPMI 1640 medium (Mediatech, Inc, Herndon, VA) with 10% fetal bovine serum (FBS) (Hyclone, Logan, UT), penicillin and streptomycin. B16-F10-luc-G5 melanoma cells (Caliper Life Sciences, Hopkinton, MA) were grown in Eagle's MEM with Earle's Balanced Salts (EBSS) (Hyclone, Logan, UT) supplemented with 10% FBS, non essential amino acids (Hyclone, Logan, UT), L-glutamine, sodium pyruvate (Hyclone, Logan, UT), MEM vitamin solution (Life Technologies-Invitrogen), penicillin and streptomycin (Omega Scientific, Tarzana, CA). HUVECs (Cascade Biologics, Portland, OG) were grown in Medium 200 supplemented with low serum growth supplements (Cascade Biologics), 10% FBS, penicillin and streptomycin, and fungizone (Omega Scientific, Tarzana, CA). Rat EMCs were grown in DMEM (Mediatech, Inc, Herndon, VA) supplemented with 10% FBS, penicillin and streptomycin. The different modified forms of TNYL-RAW at a concentration of 25 nM were added to fresh medium or culture medium conditioned by the cells for 1–4 days. The culture medium was collected after different time periods and diluted 1∶10 in ELISA wells. The amount of intact TNYL-RAW peptide remaining was measured by using the ELISA assays described above for measurement of binding affinity. In some experiments, the peptide was incubated at 37°C with PC3 cell conditioned medium collected from the cells in the absence or in the presence of protease inhibitors (10 µg/ml aprotinin, 5 µg/ml pepstatin, 10 µg/ml leupeptin and 0.75 mM or phenylmethylsulfonylfluoride (PMSF)).

The target in a further data set is T1, EphB4 (Mus musculus, UniProt P54761).
T1 construct: tyrosine phosphorylation of endogenous EphB4 expressed in B16 melanoma cells; host or cells: B16-F10-luc-G5 melanoma cells
T1 sequence (P54761 16-987): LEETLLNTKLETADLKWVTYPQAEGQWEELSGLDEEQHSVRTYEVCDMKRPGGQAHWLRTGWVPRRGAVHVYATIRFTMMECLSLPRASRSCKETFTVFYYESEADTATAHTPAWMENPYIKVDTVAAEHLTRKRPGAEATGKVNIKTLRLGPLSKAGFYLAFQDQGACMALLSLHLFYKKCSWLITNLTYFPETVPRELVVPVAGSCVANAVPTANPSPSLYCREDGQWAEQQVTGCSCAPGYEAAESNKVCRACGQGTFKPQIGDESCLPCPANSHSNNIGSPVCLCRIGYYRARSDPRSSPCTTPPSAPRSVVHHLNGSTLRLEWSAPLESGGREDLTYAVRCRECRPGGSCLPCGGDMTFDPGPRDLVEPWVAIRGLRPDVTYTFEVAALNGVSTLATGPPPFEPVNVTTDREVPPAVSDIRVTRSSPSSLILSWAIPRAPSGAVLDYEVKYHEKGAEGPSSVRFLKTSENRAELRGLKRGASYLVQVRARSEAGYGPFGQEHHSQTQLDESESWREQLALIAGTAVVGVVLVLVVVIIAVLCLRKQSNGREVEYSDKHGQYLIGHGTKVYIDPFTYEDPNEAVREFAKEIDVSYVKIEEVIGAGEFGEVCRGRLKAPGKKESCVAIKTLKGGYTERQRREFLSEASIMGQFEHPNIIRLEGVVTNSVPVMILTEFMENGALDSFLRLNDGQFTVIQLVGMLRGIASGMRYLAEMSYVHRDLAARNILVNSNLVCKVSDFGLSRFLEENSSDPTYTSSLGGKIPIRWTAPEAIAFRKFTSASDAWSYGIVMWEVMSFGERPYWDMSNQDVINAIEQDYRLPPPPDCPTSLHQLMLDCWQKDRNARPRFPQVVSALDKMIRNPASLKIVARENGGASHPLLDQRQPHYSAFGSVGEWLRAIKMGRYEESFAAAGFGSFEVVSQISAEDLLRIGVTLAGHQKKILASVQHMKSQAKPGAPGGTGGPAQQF
Put plainly: Ephrin-B2-induced EphB4 tyrosine phosphorylation in B16 melanoma cells (immunoprecipitation/immunoblot). The class given is cell-based. Conditions: 24 hours pretreatment, Figure 4A. The procedure: B16-F10-luc-G5 melanoma cells, which endogenously express EphB4, were serum starved for 1–3 hours in Eagle's MEM/EBSS containing 0.5% FBS and incubated for 15 min or 24 hours with different concentrations of PEG-TNYL-RAW. The cells were then stimulated for 20 min with 1.5 µg/ml ephrin-B2 Fc, which had been preclustered with a 3 fold excess of an anti-Fc antibody, in the continued presence of the peptide. HUVECs, EMCs or a 1∶1 mixture of the two cell types were plated for 20 hours in complete medium in the presence of PEG or PEG-TNYL-RAW. Medium 200 was used for HUVECs and HUVECs and EMCs co-cultures, DMEM was used for EMCs. The cells were lysed in modified RIPA buffer (1% Triton X-100, 1% Na deoxycholate; 0.1% SDS; 20 mM Tris; 150 mM NaCl; 1 mM EDTA) containing 10 µM NaF, 1 µM sodium pervanadate and protease inhibitors. Protein concentrations were measured using the BCA protein assay kit (Pierce Biotechnology, Rockford, IL). For immunoprecipitations, cell lysates were incubated with 20 µg of an anti-EphB4 antibody made to a GST fusion protein of the EphB4 SAM domain and carboxy-terminal tail immobilized on GammaBind Sepharose beads (GE Healthcare Life Sciences). […]

Square brackets hold non-standard residues; d marks the D form. Peptide text beside a SMILES is read from it. * marks the point of attachment. Biotin = O=C1N[C@H]2[C@H](CS[C@H]2CCCCC(=O)*)N1; Ahx = NCCCCCC(=O)O

Turning to `CC[C@H](C)[C@H](NC(=O)[C@@H]1CCCN1C(=O)CNC(=O)[C@H](CC(N)=O)NC(=O)[C@@H]1CCCN1C(=O)[C@H](CO)NC(=O)[C@H](Cc1ccccc1)NC(=O)[C@H](CC(C)C)NC(=O)[C@H](Cc1ccc(O)cc1)NC(=O)[C@H](CC(N)=O)NC(=O)[C@@H](N)[C@@H](C)O)C(=O)N[C@@H](C)C(=O)N[C@@H](CCCNC(=N)N)C(=O)N[C@@H](C)C(=O)N[C@@H](Cc1c[nH]c2ccccc12)C(=O)NCCCCCC(=O)N[C@@H](CCCCNC(=O)CCCC[C@@H]1SC[C@@H]2NC(=O)N[C@@H]21)C(N)=O` [TNYL-RAW] (H-TNYLFSPNGPIARAW[Ahx]K(Biotin)-NH2; N-terminus and C-terminus assumed), the “Peptide loss in culture medium of other cell types” value in data set [1] (B16 melanoma cells, HUVECs, EMCs (Figure S1), C6 glioma cells and BPH1 prostate epithelial cells (data not shown), biotinylated TNYL-RAW, ELISA) was “Rapid TNYL-RAW loss”. Further, the “Half-life in PC3 cell culture medium” value in data set [1] (biotinylated TNYL-RAW with PC3 prostate cancer cells grown in the same medium for several days, depends on cell density and time in medium, ELISA capture on EphB4 Fc, streptavidin-HRP, Figure 1A) was “less than an hour to several hours”. In data set [1] (biotinylated TNYL-RAW, PC3 cells, medium freshly replaced before adding peptide, ELISA, Figure 1A), the “Half-life with cells in fresh culture medium versus medium used for 3 days” value was “had a longer half-life”. Moreover, the “Peptide loss in PC3 cell conditioned medium with protease inhibitors” value in data set [1] (conditioned medium without cells, 37°C, aprotinin, leupeptin, pepstatin and PMSF, ELISA, Figure 1B) is listed as “blocked by a mixture of protease inhibitors”. In addition, the “Inhibitory activity on EphB4 phosphorylation after 24 hours of incubation with cells” value on EphB4 is listed as “ineffective”.

The record behind these values is publication PMC3237458, “PEGylation Potentiates the Effectiveness of an Antagonistic Peptide That Targets the EphB4 Receptor with Nanomolar Affinity” (PLoS ONE, 2011).
